Measured values as given in ChEMBL document CHEMBL1201862, “PubChem BioAssay data set” (2004).
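Tested at 5 concentrations; 48 h exposure; 96-well plates; endpoints linearly interpolated, else capped at highest concentration. Abbreviation: GI50, concentration required for 50% inhibition of growth.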 Activity calls are given as the source filed them. Cut-off read from the data, not from the text of the source: active = GI50 up to about 1.1 µM and inactive = higher.

Columns and labels:
Test in all cases: inhibition of tumour cell growth, NCI panel, 48 h
PC-3 = test system: PC-3
NCI-H460 = test system: NCI-H460
M14 = test system: M14
T47D = test system: T47D
SK-MEL-28 = test system: SK-MEL-28
MCF7 = test system: MCF7
NCI-H23 = test system: NCI-H23
MOLT-4 = test system: MOLT-4
MDA-N = test system: MDA-N
Hs-578T = test system: Hs-578T
OVCAR-5 = test system: OVCAR-5
MDA-MB-435 = test system: MDA-MB-435
CAKI-1 = test system: CAKI-1
UACC-257 = test system: UACC-257
CCRF-CEM = test system: CCRF-CEM
UACC-62 = test system: UACC-62
HOP-92 = test system: HOP-92
EKVX = test system: EKVX
MDA-MB-231 = test system: MDA-MB-231
A498 = test system: A498
HCC 2998 = test system: HCC 2998
HOP-62 = test system: HOP-62
NCI/ADR-RES = test system: NCI/ADR-RES
Malme-3M = test system: Malme-3M
SK-MEL-2 = test system: SK-MEL-2
HCT-116 = test system: HCT-116
COLO 205 = test system: COLO 205
SW-620 = test system: SW-620
DU-145 = test system: DU-145
IGROV-1 = test system: IGROV-1
OVCAR-8 = test system: OVCAR-8
SR = test system: SR
HT-29 = test system: HT-29
KM12 = test system: KM12
SNB-19 = test system: SNB-19
786-0 = test system: 786-0
LOX IMVI = test system: LOX IMVI
OVCAR-3 = test system: OVCAR-3
OVCAR-4 = test system: OVCAR-4
SF-268 = test system: SF-268
A549 = test system: A549
SF-295 = test system: SF-295
NCI-H226 = test system: NCI-H226
HL-60 = test system: HL-60
RXF 393 = test system: RXF 393
SF-539 = test system: SF-539
SK-OV-3 = test system: SK-OV-3
TK-10 = test system: TK-10
ACHN = test system: ACHN
SN12C = test system: SN12C
HCT-15 = test system: HCT-15
SK-MEL-5 = test system: SK-MEL-5

SMILES: CC(C)n1c(=O)c2nn3c(=O)n(C(C)C)c(=O)c3nn2c1=O
- GI50 (PC-3): > 100 µM (inactive)
- GI50 (NCI-H460): > 100 µM (inactive)
- GI50 (M14): > 100 µM (inactive)
- GI50 (T47D): > 100 µM (inactive)
- GI50 (SK-MEL-28): > 100 µM (inactive)
- GI50 (MCF7): > 100 µM (inactive)
- GI50 (NCI-H23): > 100 µM (inactive)
- GI50 (MOLT-4): > 100 µM (inactive)
- GI50 (MDA-N): > 100 µM (inactive)
- GI50 (Hs-578T): > 100 µM (inactive)
- GI50 (OVCAR-5): > 100 µM (inactive)
- GI50 (MDA-MB-435): > 100 µM (inactive)
- GI50 (CAKI-1): > 100 µM (inactive)
- GI50 (UACC-257): > 100 µM (inactive)
- GI50 (CCRF-CEM): > 100 µM (inactive)
- GI50 (UACC-62): > 100 µM (inactive)
- GI50 (HOP-92): > 100 µM (inactive)
- GI50 (EKVX): > 100 µM (inactive)
- GI50 (MDA-MB-231): > 100 µM (inactive)
- GI50 (A498): > 100 µM (inactive)
- GI50 (HCC 2998): > 100 µM (inactive)
- GI50 (HOP-62): > 100 µM (inactive)
- GI50 (NCI/ADR-RES): > 100 µM (inactive)
- GI50 (Malme-3M): > 100 µM (inactive)
- GI50 (SK-MEL-2): > 100 µM (inactive)
- GI50 (HCT-116): > 100 µM (inactive)
- GI50 (COLO 205): > 100 µM (inactive)
- GI50 (SW-620): > 100 µM (inactive)
- GI50 (DU-145): > 100 µM (inactive)
- GI50 (IGROV-1): > 100 µM (inactive)
- GI50 (OVCAR-8): > 100 µM (inactive)
- GI50 (SR): > 100 µM (inactive)
- GI50 (HT-29): > 100 µM (inactive)
- GI50 (KM12): > 100 µM (inactive)
- GI50 (SNB-19): > 100 µM (inactive)
- GI50 (786-0): > 100 µM (inactive)
- GI50 (LOX IMVI): > 100 µM (inactive)
- GI50 (OVCAR-3): > 100 µM (inactive)
- GI50 (OVCAR-4): > 100 µM (inactive)
- GI50 (SF-268): > 100 µM (inactive)
- GI50 (A549): > 100 µM (inactive)
- GI50 (SF-295): > 100 µM (inactive)
- GI50 (NCI-H226): > 100 µM (inactive)
- GI50 (HL-60): > 100 µM (inactive)
- GI50 (RXF 393): > 100 µM (inactive)
- GI50 (SF-539): > 100 µM (inactive)
- GI50 (SK-OV-3): > 100 µM (inactive)
- GI50 (TK-10): > 100 µM (inactive)
- GI50 (ACHN): > 100 µM (inactive)
- GI50 (SN12C): > 100 µM (inactive)
- GI50 (HCT-15): > 100 µM
- GI50 (SK-MEL-5): > 100 µM (inactive)
